Test results from EP3031808B1, “SALT OF IDELALISIB” (ratiopharm GmbH, priority 2014, dated 2016).
Where two headings read alike, the source gives them in different places.

Experiments:
[1] = cited from earlier work
[2] = solubilities of salts of idelalisib in buffers and selected media
[3] = water demin. (pH dep.), 15 min.
[4] = water demin. (pH dep.), 60 min.

Compound | solubility in water ([1]; water at pH 1.2) | solubility in water ([1]; water at pH 7) | solubilities ([2]; 0,01m HCl pH ∼2,2, 15 min.) | solubilities ([2]; 0,01m HCl pH ∼2,2, 60 min.) | solubilities ([2]; 20mM NaOAc pH 4.5, 15 min.) | solubilities ([2]; 20mM NaOAc pH 4.5, 60 min.) | solubilities ([2]; 50mM KH2PO4 pH 6.8, 15 min.) | solubilities ([2]; 50mM KH2PO4 pH 6.8, 60 min.) | solubilities ([2]; 0.1 % TPGS (FaSSIF), 15 min.) | solubilities ([2]; 0.1 % TPGS (FaSSIF), 60 min.) | solubilities ([2]; 2.0% TPGS (FeSSIF), 15 min.) | solubilities ([2]; 2.0% TPGS (FeSSIF), 60 min.) | solubilities [2, 3] | solubilities [2, 4] | solubility compared to the free base of idelalisib ([2]; general statement)
CC[C@H](Nc1ncnc2[nH]cnc12)c1nc2cccc(F)c2c(=O)n1-c1ccccc1 [Base, 5-fluoro-3-phenyl-2-[(1S)-1-(9H-purin-6-ylamino)propyl]quinazolin-4(3H)-one] | soluble | practically insoluble | 0.947 | 1.051 | 0.092 | 0.100 | 0.086 | 0.088 | 0.141 | 0.107 | 1.056 | 1.172 | 0.098 | 0.081 | –
Maleate | – | – | 2.445 | 2.655 | 0.411 | 0.475 | 0.355 | 0.393 | 0.662 | 1.121 | 6.798 | 6.984 | 1.934 | 2.095 | increased
